Laboratory results reported in patent US11332438B2, “Creatine prodrugs, compositions and methods of use thereof” (Ultragenyx Pharmaceutical Inc., priority 2017, dated 2022).

Legend:
[1] = Plasma stability, human plasma; type: in vitro ADME; settings: Table 2A, 37 °C, read-out: Plasma Stability Human t1/2
Outline: (§1)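 Half-life (min) from LC-MS/MS of acetonitrile-quenched samples taken at t=0, 2, 5, 15, 30 min. Compound dosed at 1 µM final into plasma pre-warmed to 37 °C, pH set to 7.4 where required; incubations at 37 °C.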

[2] = Plasma stability, mouse plasma; type: in vitro ADME; settings: Table 2A, 37 °C, read-out: Plasma Stability Mouse t1/2
Outline: as §1

[3] = Liver microsome stability, human; type: in vitro ADME; settings: liver microsomes, pH 7.4, Table 2A, read-out: Microsome Stability Human t1/2
Outline: (§2)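 Remaining compound measured by LC/MS after acetonitrile/internal-standard quench at 0–60 min time points (0, 5, 10, 20, 30, 60). Incubations used mouse or human liver microsomes in pH 7.4 potassium phosphate/EDTA buffer with NADPH; a 60-min sample without NADPH served as control.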

[4] = Liver microsome stability, mouse; type: in vitro ADME; settings: liver microsomes, pH 7.4, Table 2A, read-out: Microsome Stability Mouse t1/2
Outline: as §2

[5] = Chemical stability in phosphate buffered saline (PBS); type: physicochemical; settings: 50 μM prodrug
Outline: (§3)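 Incubations used 50 μM compound at 37 °C in phosphate buffered saline, fasted simulated intestinal fluid without pancreatin, or fasted simulated gastric fluid without pepsin.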

[6] = Chemical stability in simulated gastric fluid (SGF) without pepsin; type: physicochemical; settings: 50 μM prodrug
Outline: as §3

half-life [1] | half-life [2] | half-life at 10 μM [3] | half-life at 10 μM [4] | Chemical Stability PBS % T0 at 2 hours at 37 °C. ([5]; Table 2A) | Chemical Stability SGF, no enzyme % T0 at 2 hours at 37 °C. ([6]; Table 2A) | Chemical Stability PBS % T0 at 2 hours at 37 °C. ([5]; Table 2B) | Chemical Stability SGF, no enzyme % T0 at 2 hours at 37 °C. ([6]; Table 2B) | Compound
< 5 min | < 5 min | 6 min | 7 min | 61% | 81% |  |  | Cl.[H]/N=C(/NC(=O)CCCCCCC/C=C\CCCCCCCC)N(CC(=O)OCCCCCCC)C([2H])([2H])[2H] [Compound 2, (Z)-heptyl 2-(1-trideuteriomethyl-3-oleoylguanidino)acetate Hydrochloride]
< 5 min | < 5 min | < 5 min | < 5 min | 0% | 117% | 0% | 95% | Cl.[2H]C([2H])([2H])N(CC(=O)OCC)C(=N)NC(=O)CCCCCCCCCC [Compound 8]
< 5 min | < 5 min | < 5 min | < 5 min | 42% | 76% |  |  | Cl.[2H]C([2H])([2H])N(CC(=O)OCCCCCCC)C(=N)NC(=O)CCCCCCCCCCCC [Compound 11]
